How the values were obtained:
[1] = molecular target: T1, p37AUF1 (AUF1, hnRNP D) (Homo sapiens, UniProt Q14103); experiment: SPR (Biacore 8K, CM5 chip, amine coupling); assay type: binding; conditions: 20 mM PB pH 7.4 at immobilization; 5% DMSO; compound at 0-80 uM
T1 construct: gene HNRNPD; recombinant purified p37 isoform; expression details and tags only in supplement
T1 sequence (Q14103 2-287 isoform Q14103-4): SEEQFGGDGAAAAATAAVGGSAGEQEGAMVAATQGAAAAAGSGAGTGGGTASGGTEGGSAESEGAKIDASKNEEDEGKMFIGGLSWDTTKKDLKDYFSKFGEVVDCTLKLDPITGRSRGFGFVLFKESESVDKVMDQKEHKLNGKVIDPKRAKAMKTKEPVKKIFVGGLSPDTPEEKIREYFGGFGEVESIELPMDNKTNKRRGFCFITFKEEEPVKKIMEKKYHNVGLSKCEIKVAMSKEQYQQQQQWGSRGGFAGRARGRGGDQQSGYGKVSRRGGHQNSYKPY

[2] = molecular target: T2, AUF1 (endogenous, CETSA) (Homo sapiens, UniProt Q14103); experiment: CETSA, Western blot; assay type: cell-based; conditions: HepG2, SK-MEL-2, HCT-116 cells; 1 h treatment at 1, 3.5 or 6 uM
T2 construct: gene HNRNPD; endogenous AUF1 in intact cells, detected by Western blot
T2 sequence (Q14103 2-355): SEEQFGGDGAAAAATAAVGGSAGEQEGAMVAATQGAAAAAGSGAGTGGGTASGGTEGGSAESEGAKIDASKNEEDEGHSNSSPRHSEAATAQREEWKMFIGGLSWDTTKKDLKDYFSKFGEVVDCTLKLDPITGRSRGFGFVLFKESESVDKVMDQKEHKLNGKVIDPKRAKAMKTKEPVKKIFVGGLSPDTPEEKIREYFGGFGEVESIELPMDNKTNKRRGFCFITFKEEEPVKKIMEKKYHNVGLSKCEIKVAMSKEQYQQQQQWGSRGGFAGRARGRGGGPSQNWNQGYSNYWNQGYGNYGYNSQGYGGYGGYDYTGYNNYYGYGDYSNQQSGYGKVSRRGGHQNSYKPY

[3] = molecular target: T1, p37AUF1 (AUF1, hnRNP D); experiment: REMSA, inhibition of AUF1-RNA complex formation; assay type: binding; conditions: 750 nM AUF1, 250 nM FAM-labelled TNF ARE RNA; 10 mM Tris-HCl pH 8.0, 50 mM KCl, 2 mM DTT, 0.5 mM EDTA; on ice

In the case of `Nc1nc(Nc2ccc(S(N)(=O)=O)cc2)nn1C(=O)c1c(F)cccc1F` [JNJ-7706621], the “SPR (Biacore 8K, CM5 chip, amine coupling)” value [1] is reported as “only one compound, JNJ-7706621, showed a typical binding curve shape”, the Tm [2] is reported as “The melting temperature fitted from the curve in each cell decreased when treated with JNJ-7706621” and the “REMSA, inhibition of AUF1-RNA complex formation” value [3] is reported as “After adding increasing JNJ-7706621, the bands representing RNA-AUF1 complex weakened”.

Source: article PMC9143527, “A Novel Strategy for Regulating mRNA’s Degradation via Interfering the AUF1’s Binding to mRNA” (Molecules, 2022)
